The text below walks through data of ChEMBL document CHEMBL1201862, “PubChem BioAssay data set” (2004).

Molecules are shown by their SMILES.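 Method: 48-hour compound exposure of cells in 96-well plates, five concentrations, linear interpolation of endpoints. GI50 marks 50% less growth.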 Calls of active or inactive are those of the source. Cut-off read from the data, not from the text of the source: active = GI50 up to about 1.1 µM and inactive = higher.

Some test systems named below: EKVX; HCT-15; HT-29; K562; LOX IMVI; NCI-H23; OVCAR-8; SF-268; SF-539; SK-MEL-28; SK-MEL-2; SK-MEL-5; SK-OV-3; SN12C; SNB-19; SW-620; U-251; UACC-62; OVCAR-4; RXF 393.
What all share (assay): inhibition of tumour cell growth, NCI panel, 48 h

As to `COc1ccc(/C(Cl)=C(\CN(C)C)c2ccc(OC)c(OC)c2)cc1OC`, the GI50 is > 100 µM (inactive) with EKVX; more than 100 µM in the assay with HCT-15; > 100 µM (inactive) with HT-29; > 100 µM (inactive) with K562; > 100 µM (inactive) in the assay with LOX IMVI; > 100 µM (inactive) in the assay on NCI-H23. Besides, the GI50 in the assay on OVCAR-8 was > 100 µM (inactive); in the assay with SF-268, > 100 µM (inactive); with SF-539 it was > 100 µM (inactive); with SK-MEL-28, > 100 µM (inactive); with SK-MEL-2 it was 55.6 µM (inactive); in the assay with SK-MEL-5, > 100 µM (inactive). Also, the GI50 with SK-OV-3, with SN12C, in the assay on SNB-19, with SW-620, in the assay on U-251 and with UACC-62 was > 100 µM (inactive) in each case.
In the case of `O=C(Nc1ccc(Cl)cc1)c1cc2cc(/N=N/c3ccccc3Cl)ccc2oc1=O`, the GI50 in the assay with EKVX is 25.5 µM (inactive); with HCT-15 it was 2.74 µM; in the assay with HT-29, 15.2 µM (inactive); in the assay on K562, 5.28 µM (inactive); in the assay with NCI-H23 it was 13.3 µM (inactive); with OVCAR-4 it was 22 µM (inactive). Moreover, the GI50 in the assay with OVCAR-8 was 13.4 µM (inactive); in the assay with RXF 393, 46.9 µM (inactive); in the assay with SF-268, 15.2 µM (inactive); in the assay with SF-539, 14 µM (inactive); in the assay on SK-MEL-28, 15.9 µM (inactive); in the assay with SK-MEL-2 it was 18.1 µM (inactive). In addition, the GI50 with SK-MEL-5 was 22.2 µM (inactive); in the assay with SK-OV-3, 46.9 µM (inactive); in the assay on SN12C it was 18.7 µM (inactive); in the assay with SNB-19 it was 27.5 µM (inactive); in the assay on SW-620 it was 18.1 µM (inactive); in the assay with U-251 it was 14.2 µM (inactive). The GI50 with UACC-62 is 8.39 µM (inactive).
On to `COc1cc([N+](=O)[O-])ccc1N1C(=O)C2c3[nH]c4ccccc4c3C3CCC(C(C)(C)C)CC3C2C1=O` (stereo not drawn), for which the GI50 was 33.4 µM (inactive) in the assay with EKVX; more than 100 µM with HCT-15; 88.9 µM (inactive) in the assay with HT-29; 18.5 µM (inactive) in the assay with LOX IMVI; 31 µM (inactive) in the assay on NCI-H23; 17.2 µM (inactive) in the assay on OVCAR-4. Also, the GI50 with OVCAR-8 is 29 µM (inactive); in the assay on SF-539 it was 62.8 µM (inactive); in the assay on SK-MEL-28, 9.12 µM (inactive); in the assay on SK-MEL-2, 94.8 µM (inactive); in the assay with SK-MEL-5, 40.9 µM (inactive); in the assay on SK-OV-3, > 100 µM (inactive). For the same molecule, the GI50 was 64.4 µM (inactive) in the assay with SN12C, > 100 µM (inactive) in the assay on SW-620, 9.79 µM (inactive) with U-251 and 19.6 µM (inactive) with UACC-62.
For `C=CCCC(On1c(-c2ccc(Cl)cc2)csc1=S)c1ccccc1` (stereo not drawn), the GI50 is 19.9 µM (inactive) in the assay with EKVX; 8.05 µM in the assay with HCT-15; 7.59 µM (inactive) in the assay with HT-29; 9.51 µM (inactive) in the assay with K562; 33.6 µM (inactive) in the assay on LOX IMVI; 39.4 µM (inactive) in the assay on NCI-H23. The GI50 in the assay with OVCAR-4 is 38.5 µM (inactive); in the assay on OVCAR-8 it was 98.6 µM (inactive); in the assay with RXF 393, 29.7 µM (inactive); in the assay on SF-268, 34 µM (inactive); in the assay with SF-539, 26.9 µM (inactive); with SK-MEL-28, 85.3 µM (inactive). Also, the GI50 in the assay on SK-MEL-2 is 14.9 µM (inactive); in the assay with SK-MEL-5 it was 14.9 µM (inactive); with SN12C it was 47.3 µM (inactive); with SNB-19 it was 35.6 µM (inactive); in the assay with SW-620, 8.73 µM (inactive); in the assay on U-251, 21.2 µM (inactive). In addition, the GI50 in the assay on UACC-62 was 36.7 µM (inactive).
With `CSc1nc(NC2OCC(OC(C)=O)C(OC(C)=O)C2OC(C)=O)c(/N=C(\C)C(C)=O)c(=O)[nH]1` (stereo not drawn), the GI50 was > 100 µM (inactive) in the assay on EKVX; more than 100 µM in the assay on HCT-15; > 100 µM (inactive) with HT-29; > 100 µM (inactive) in the assay on K562; > 100 µM (inactive) with LOX IMVI; > 100 µM (inactive) with NCI-H23. The GI50 in the assay with OVCAR-4, with OVCAR-8, in the assay on RXF 393, in the assay on SF-268, with SF-539 and with SK-MEL-28 was > 100 µM (inactive) each time. Besides, the GI50 with SK-MEL-2, in the assay on SK-MEL-5, with SN12C, in the assay with SNB-19, in the assay with SW-620 and in the assay with U-251 was > 100 µM (inactive) each time.
On to `COS(=O)c1cc(Cl)cc(Cl)c1O` (stereo not drawn), for which the GI50 with EKVX, with HT-29, with K562, in the assay on LOX IMVI, with NCI-H23 and in the assay with OVCAR-4 was > 100 µM (inactive) throughout. The GI50 with RXF 393 is > 100 µM (inactive); in the assay on SF-268, > 100 µM (inactive); in the assay with SF-539 it was > 100 µM (inactive); in the assay with SK-MEL-28 it was > 100 µM (inactive); with SK-MEL-2, > 100 µM (inactive); in the assay on SK-OV-3, 81.7 µM (inactive). For the same molecule, the GI50 with SN12C, in the assay with SNB-19, with U-251 and in the assay on UACC-62 was > 100 µM (inactive) in each case.
With `Cc1cccc(C)c1NC(=O)/C(CC(=O)CC(c1ccccc1)c1c(O)c2ccccc2oc1=O)=N/O` (stereo not drawn), the GI50 was > 100 µM (inactive) with EKVX; more than 100 µM in the assay on HCT-15; > 100 µM (inactive) in the assay with HT-29; > 100 µM (inactive) in the assay on LOX IMVI; > 100 µM (inactive) in the assay with NCI-H23; > 100 µM (inactive) with OVCAR-4. For the same molecule, the GI50 with OVCAR-8, with RXF 393, with SF-268, in the assay on SF-539, in the assay on SK-MEL-28 and with SK-MEL-2 was > 100 µM (inactive) each time. Besides, the GI50 in the assay on SK-MEL-5, in the assay on SK-OV-3, in the assay with SN12C, with SNB-19, in the assay with SW-620 and with U-251 was > 100 µM (inactive) in each case. The GI50 with UACC-62 is > 100 µM (inactive).
In the case of `CC1(C)OCC(CO)(CO)CO1`, the GI50 is more than 100 µM with HCT-15; > 100 µM (inactive) in the assay on HT-29; > 100 µM (inactive) in the assay on K562; > 100 µM (inactive) with LOX IMVI; > 100 µM (inactive) with NCI-H23; > 100 µM (inactive) in the assay on OVCAR-4. The GI50 with OVCAR-8, in the assay on RXF 393, in the assay on SF-268, in the assay on SK-MEL-28, in the assay on SK-MEL-5 and in the assay with SK-OV-3 was > 100 µM (inactive) each time. Also, the GI50 in the assay on SN12C, in the assay on SNB-19, with SW-620 and with U-251 was > 100 µM (inactive) throughout.
For the molecule `COc1ccc(C(=O)C2CC3(CCC2(O)c2ccc(OC)cc2)CC(=O)Nc2ccccc2C3=O)cc1` (stereo not drawn), the GI50 was > 100 µM (inactive) with EKVX; 5.85 µM in the assay with HCT-15; > 100 µM (inactive) in the assay with HT-29; > 100 µM (inactive) in the assay with K562; > 100 µM (inactive) in the assay with LOX IMVI; > 100 µM (inactive) with NCI-H23. For the same molecule, the GI50 was 1.55 µM (inactive) in the assay on OVCAR-4; > 100 µM (inactive) in the assay with OVCAR-8; > 100 µM (inactive) with RXF 393; > 100 µM (inactive) in the assay with SF-268; > 100 µM (inactive) with SF-539; > 100 µM (inactive) in the assay with SK-MEL-2. For the same molecule, the GI50 in the assay on SK-MEL-5 was 4.98 µM (inactive); with SK-OV-3, > 100 µM (inactive); in the assay with SN12C, > 100 µM (inactive); with SW-620, > 100 µM (inactive); in the assay with U-251 it was 63.7 µM (inactive); with UACC-62, > 100 µM (inactive).
Take `CCOC(=O)Cc1cnc(NC(NC(=O)CC)(C(F)(F)F)C(F)(F)F)s1`: the GI50 in the assay with EKVX is > 100 µM (inactive); in the assay on HCT-15, more than 100 µM; in the assay on HT-29 it was > 100 µM (inactive); with K562, > 100 µM (inactive); with LOX IMVI it was > 100 µM (inactive); in the assay with NCI-H23, > 100 µM (inactive). The GI50 with RXF 393, in the assay on SF-268, in the assay with SF-539, with SK-MEL-28, in the assay with SK-MEL-2 and in the assay with SK-OV-3 was > 100 µM (inactive) each time. The GI50 in the assay with SN12C, in the assay with SNB-19, in the assay on U-251 and in the assay with UACC-62 was > 100 µM (inactive) each time.
Regarding `Oc1nc2ccccc2c2oc3ccccc3c12`, the GI50 in the assay on EKVX was 2.9 µM (inactive); in the assay with HCT-15, more than 100 µM; in the assay on HT-29, > 100 µM (inactive); in the assay on K562, > 100 µM (inactive); in the assay with NCI-H23, > 100 µM (inactive); in the assay on OVCAR-4, > 100 µM (inactive). In addition, the GI50 with OVCAR-8 was > 100 µM (inactive); with RXF 393 it was 82 µM (inactive); with SF-268, > 100 µM (inactive); in the assay on SF-539 it was > 100 µM (inactive); with SK-MEL-28 it was > 100 µM (inactive); in the assay with SK-MEL-5, > 100 µM (inactive). In addition, the GI50 in the assay on SK-OV-3 was 76 µM (inactive); in the assay on SN12C, > 100 µM (inactive); in the assay with SNB-19, > 100 µM (inactive); with SW-620, > 100 µM (inactive); in the assay with U-251 it was > 100 µM (inactive); in the assay with UACC-62 it was > 100 µM (inactive).
